Results published in ChEMBL document CHEMBL3885881, “DrugMatrix”.

Organism: Rattus norvegicus
Test: DrugMatrix - Regimen: Daily Repeat
Type: toxicity, organism-based, Sprague-Dawley
Design: regimen Daily Repeat, gender Male, age 6-8 weeks
Settings: in vivo, po, route oral GAVAGE, vehicle 100 % WATER; for ABSOLUTE BASOPHIL / ABSOLUTE EOSINOPHIL / ABSOLUTE LYMPHOCYTE / ABSOLUTE MONOCYTE / ABSOLUTE SEGMENTED NEUTROPHIL / BASOPHIL / EOSINOPHIL / ERYTHROCYTE COUNT / HEMATOCRIT / HEMOGLOBIN / LEUKOCYTE COUNT / LYMPHOCYTE / MEAN CORPUSCULAR HEMOGLOBIN / MEAN CORPUSCULAR HEMOGLOBIN CONCENTRATION / MEAN CORPUSCULAR VOLUME / MONOCYTE / NEUTROPHIL / NUCLEATED RED BLOOD CELLS / PLATELET COUNT: tissue Blood; for ALANINE AMINOTRANSFERASE / ALBUMIN / ALKALINE PHOSPHATASE / ASPARTATE AMINOTRANSFERASE / BLOOD UREA NITROGEN / CARBON DIOXIDE / CHLORIDE / CHOLESTEROL / CREATINE PHOSPHOKINASE / CREATININE / GLUCOSE / LACTATE DEHYDROGENASE / LIPASE / PHOSPHORUS / POTASSIUM / SODIUM / TOTAL BILIRUBIN / TOTAL PROTEIN / URIC ACID: tissue Plasma
[1] = 27 mg/kg, 72 h, dose level High, time 3 day
[2] = 27 mg/kg, 120 h, dose level High, time 5 day
[3] = […], 72 h, dose 2.7 mg/Kg, dose level Low, time 3 day
[4] = […], 120 h, dose 2.7 mg/Kg, dose level Low, time 5 day

With `NNCCc1ccccc1` [PHENELZINE] the “ABSOLUTE BASOPHIL” value [1] was 0 CELLS/uL, the “ABSOLUTE EOSINOPHIL” value [1] was 54.67 CELLS/uL and the “ABSOLUTE LYMPHOCYTE” value [1] was 7424 CELLS/uL. For the same compound, the “ABSOLUTE MONOCYTE” value [1] was 106.67 CELLS/uL, the “ABSOLUTE SEGMENTED NEUTROPHIL” value [1] was 481.33 CELLS/uL and the BASOPHIL [1] was 0%. For the same compound, the EOSINOPHIL [1] was 0.67%, the “ERYTHROCYTE COUNT” value [1] was 5.49 x10E6/uL and the HEMATOCRIT [1] was 35.1%. The HEMOGLOBIN [1] was 14.03 G/DL, the “LEUKOCYTE COUNT” value [1] was 8.07 x10E3/uL and the LYMPHOCYTE [1] was 92%. The “MEAN CORPUSCULAR HEMOGLOBIN” value [1] was 25.57 pg, the “MEAN CORPUSCULAR HEMOGLOBIN CONCENTRATION” value [1] was 39.97 G/DL and the “MEAN CORPUSCULAR VOLUME” value [1] was 63.93 fL. The MONOCYTE [1] was 1.33%, the NEUTROPHIL [1] was 6% and the “NUCLEATED RED BLOOD CELLS” value [1] was 0 /100WBC. The “PLATELET COUNT” value [1] was 1341.67 x10E3/uL, the “ALANINE AMINOTRANSFERASE” value [1] was 25.67 u/L and the ALBUMIN [1] was 4.5 G/DL. The “ALKALINE PHOSPHATASE” value [1] was 356.33 u/L, the “ASPARTATE AMINOTRANSFERASE” value [1] was 75.67 u/L and the “BLOOD UREA NITROGEN” value [1] was 16.67 mg/dL. For the same compound, the “CARBON DIOXIDE” value [1] was 31 mmol/L, the CHLORIDE [1] was 102.33 MEQ/L and the CHOLESTEROL [1] was 78.33 mg/dL. For the same compound, the “CREATINE PHOSPHOKINASE” value [1] was 265 u/L, the CREATININE [1] was 0.16 mg/dL and the GLUCOSE [1] was 143 mg/dL. The “LACTATE DEHYDROGENASE” value [1] was 131.33 u/L, the LIPASE [1] was 9.33 u/L and the PHOSPHORUS [1] was 11.73 mg/dL. The POTASSIUM [1] was 6.74 MEQ/L, the SODIUM [1] was 145.43 MEQ/L and the “TOTAL BILIRUBIN” value [1] was 0.23 mg/dL. For the same compound, the “TOTAL PROTEIN” value [1] was 6.07 G/DL, the “URIC ACID” value [1] was 1.23 mg/dL and the “ABSOLUTE BASOPHIL” value [2] was 0 CELLS/uL. The “ABSOLUTE EOSINOPHIL” value [2] was 69.33 CELLS/uL, the “ABSOLUTE LYMPHOCYTE” value [2] was 8987.33 CELLS/uL and the “ABSOLUTE MONOCYTE” value [2] was 88.33 CELLS/uL. For the same compound, the “ABSOLUTE SEGMENTED NEUTROPHIL” value [2] was 388.33 CELLS/uL, the BASOPHIL [2] was 0% and the EOSINOPHIL [2] was 0.67%. The “ERYTHROCYTE COUNT” value [2] was 6.17 x10E6/uL, the HEMATOCRIT [2] was 39.07% and the HEMOGLOBIN [2] was 15.3 G/DL. For the same compound, the “LEUKOCYTE COUNT” value [2] was 9.53 x10E3/uL, the LYMPHOCYTE [2] was 94.33% and the “MEAN CORPUSCULAR HEMOGLOBIN” value [2] was 24.8 pg. For the same compound, the “MEAN CORPUSCULAR HEMOGLOBIN CONCENTRATION” value [2] was 39.17 G/DL, the “MEAN CORPUSCULAR VOLUME” value [2] was 63.33 fL and the MONOCYTE [2] was 1%. For the same compound, the NEUTROPHIL [2] was 4%, the “NUCLEATED RED BLOOD CELLS” value [2] was 0 /100WBC and the “PLATELET COUNT” value [2] was 1357.33 x10E3/uL. The “ALANINE AMINOTRANSFERASE” value [2] was 18.67 u/L, the ALBUMIN [2] was 4.37 G/DL and the “ALKALINE PHOSPHATASE” value [2] was 271 u/L. The “ASPARTATE AMINOTRANSFERASE” value [2] was 103.33 u/L, the “BLOOD UREA NITROGEN” value [2] was 26 mg/dL and the “CARBON DIOXIDE” value [2] was 23 mmol/L. The CHLORIDE [2] was 110 MEQ/L, the CHOLESTEROL [2] was 68.33 mg/dL and the “CREATINE PHOSPHOKINASE” value [2] was 320.33 u/L. The CREATININE [2] was 0.2 mg/dL, the GLUCOSE [2] was 155 mg/dL and the “LACTATE DEHYDROGENASE” value [2] was 594.67 u/L. For the same compound, the LIPASE [2] was 10 u/L, the PHOSPHORUS [2] was 11.2 mg/dL and the POTASSIUM [2] was 5.16 MEQ/L. The SODIUM [2] was 150.7 MEQ/L, the “TOTAL BILIRUBIN” value [2] was 0.17 mg/dL and the “TOTAL PROTEIN” value [2] was 6 G/DL. For the same compound, the “URIC ACID” value [2] was 1.43 mg/dL, the “ABSOLUTE BASOPHIL” value [3] was 0 CELLS/uL and the “ABSOLUTE EOSINOPHIL” value [3] was 60.67 CELLS/uL. For the same compound, the “ABSOLUTE LYMPHOCYTE” value [3] was 9104.67 CELLS/uL, the “ABSOLUTE MONOCYTE” value [3] was 151.67 CELLS/uL and the “ABSOLUTE SEGMENTED NEUTROPHIL” value [3] was 949.67 CELLS/uL. The BASOPHIL [3] was 0%, the EOSINOPHIL [3] was 0.67% and the “ERYTHROCYTE COUNT” value [3] was 5.11 x10E6/uL. The HEMATOCRIT [3] was 32.4%, the HEMOGLOBIN [3] was 12.97 G/DL and the “LEUKOCYTE COUNT” value [3] was 10.27 x10E3/uL. For the same compound, the LYMPHOCYTE [3] was 88%, the “MEAN CORPUSCULAR HEMOGLOBIN” value [3] was 25.37 pg and the “MEAN CORPUSCULAR HEMOGLOBIN CONCENTRATION” value [3] was 40.03 G/DL. The “MEAN CORPUSCULAR VOLUME” value [3] was 63.37 fL, the MONOCYTE [3] was 1.67% and the NEUTROPHIL [3] was 9.67%. For the same compound, the “NUCLEATED RED BLOOD CELLS” value [3] was 0 /100WBC, the “PLATELET COUNT” value [3] was 935.33 x10E3/uL and the “ALANINE AMINOTRANSFERASE” value [3] was 55.33 u/L. The ALBUMIN [3] was 4.33 G/DL, the “ALKALINE PHOSPHATASE” value [3] was 325.33 u/L and the “ASPARTATE AMINOTRANSFERASE” value [3] was 98 u/L. For the same compound, the “BLOOD UREA NITROGEN” value [3] was 15.33 mg/dL, the “CARBON DIOXIDE” value [3] was 33 mmol/L and the CHLORIDE [3] was 101.67 MEQ/L. For the same compound, the CHOLESTEROL [3] was 78.33 mg/dL, the “CREATINE PHOSPHOKINASE” value [3] was 665.67 u/L and the CREATININE [3] was 0.17 mg/dL. For the same compound, the GLUCOSE [3] was 155 mg/dL, the “LACTATE DEHYDROGENASE” value [3] was 181.67 u/L and the LIPASE [3] was 9 u/L. It also gave a PHOSPHORUS [3] of 12.03 mg/dL, a POTASSIUM [3] of 6.23 MEQ/L and an SODIUM [3] of 144.83 MEQ/L. The “TOTAL BILIRUBIN” value [3] was 0.17 mg/dL, the “TOTAL PROTEIN” value [3] was 5.93 G/DL and the “URIC ACID” value [3] was 1.23 mg/dL. The “ABSOLUTE BASOPHIL” value [4] was 0 CELLS/uL, the “ABSOLUTE EOSINOPHIL” value [4] was 42 CELLS/uL and the “ABSOLUTE LYMPHOCYTE” value [4] was 10324 CELLS/uL. The “ABSOLUTE MONOCYTE” value [4] was 37 CELLS/uL, the “ABSOLUTE SEGMENTED NEUTROPHIL” value [4] was 997 CELLS/uL and the BASOPHIL [4] was 0%. The EOSINOPHIL [4] was 0.33%, the “ERYTHROCYTE COUNT” value [4] was 5.61 x10E6/uL and the HEMATOCRIT [4] was 36.03%. The HEMOGLOBIN [4] was 14.1 G/DL, the “LEUKOCYTE COUNT” value [4] was 11.4 x10E3/uL and the LYMPHOCYTE [4] was 90.67%. The “MEAN CORPUSCULAR HEMOGLOBIN” value [4] was 25.13 pg, the “MEAN CORPUSCULAR HEMOGLOBIN CONCENTRATION” value [4] was 39.2 G/DL and the “MEAN CORPUSCULAR VOLUME” value [4] was 64.23 fL. The MONOCYTE [4] was 0.33%, the NEUTROPHIL [4] was 8.67% and the “NUCLEATED RED BLOOD CELLS” value [4] was 0 /100WBC. For the same compound, the “PLATELET COUNT” value [4] was 1075 x10E3/uL, the “ALANINE AMINOTRANSFERASE” value [4] was 41.33 u/L and the ALBUMIN [4] was 4.57 G/DL. The “ALKALINE PHOSPHATASE” value [4] was 403 u/L, the “ASPARTATE AMINOTRANSFERASE” value [4] was 105.67 u/L and the “BLOOD UREA NITROGEN” value [4] was 21.67 mg/dL. For the same compound, the “CARBON DIOXIDE” value [4] was 25.67 mmol/L, the CHLORIDE [4] was 101.67 MEQ/L and the CHOLESTEROL [4] was 67 mg/dL. The “CREATINE PHOSPHOKINASE” value [4] was 480.33 u/L, the CREATININE [4] was 0.33 mg/dL and the GLUCOSE [4] was 130.33 mg/dL. For the same compound, the “LACTATE DEHYDROGENASE” value [4] was 623.33 u/L, the LIPASE [4] was 11.33 u/L and the PHOSPHORUS [4] was 12.7 mg/dL. For the same compound, the POTASSIUM [4] was 6.78 MEQ/L, the SODIUM [4] was 142.87 MEQ/L and the “TOTAL BILIRUBIN” value [4] was 0.27 mg/dL. The “TOTAL PROTEIN” value [4] was 6.3 G/DL and the “URIC ACID” value [4] was 1.63 mg/dL.
